Values after ≈ are worked out from the molar mass of the structure shown.

We go through two molecules from patent publication US8399033B2, “Anti-bacterial composition comprising extract from barks of Alnus pendula Matsum” (Chung-Ang University Industry Academic Cooperation …, priority 2009, dated 2013).

The nature of test [1]: DPPH free radical scavenging activity. The class given is biochemical. The following applies: 0.1 mM DPPH, 30 min at 37° C., absorbance 492 nm; for IC50: compounds. On the procedure: Each sample (10 μL) was incubated with 0.1 mM DPPH solution (180 μL, in 99.5% ethanol), and vigorously agitated for 10 sec using a vortex mixer, followed by incubation for 30 min at 37° C. Afterwards, the absorbance was measured at 492 nm using an ELISA reader (TECAN, Sazburg, Austria). L-ascorbic acid as positive control drug was prepared and measured according to the method as described above. To determine anti-oxidative activity of each sample, anti-oxidative potential was represented as reducing power by EDA % (Electron donating ability) for DPPH. […] DPPH method is a representative measuring anti-oxidative activity (81). DPPH contains stable radical in normal condition, but its radical was removed where it contacts with a substance having anti-oxidative activity. Therefore, anti-oxidative effects could be assessed by measuring the absorbance changes of DPPH. In this regard, DPPH as a relatively stable free radical in dark-purple state was reduced by amino acids containing sulfur atom such as cystin and glutathione, L-ascorbic acid, BHA or BHT. These color changes have been used to isolate an anti-oxidative substance from a variety of natural materials (82).
For orientation: The DPPH test is a chemical assay of radical scavenging.

The test system of test [2] is DPS-2 (MRSA). Put plainly: MIC by liquid media dilution assay. The test is classed as cell-based. The settings on record: Staphylococcus aureus; DPS-2 (MRSA) clinical isolate; 24 hrs at 37° C., naked-eye observation; read-out: MIC (minimum inhibitory concentration). On the procedure: (§1) S.aureus MSSA ATCC 25923 and MRSA 33591 standard strains were purchased from Korean Culture Center of Microorganisms (KCCM), and two S. aureus clinical isolates were obtained from subjects of WonKwang University Hospital (Iksan, Jeonbuk, South Korea). Mueller Hinton Agar (MHA, Difco, USA) or Mueller Hinton Broth (MHB, Difco, USA) was used as subculture media.
(§2) Minimum Inhibitory Concentration (MIC) was carried out according to the standard of Clinical and Laboratory Standards Institute (CLSI). One strain of MRSA (Methicillin resistant staphylococcus aureus), one strain of MSSA (Methicillin susceptible staphylococcus aureus, MSSA), and two strains of MRSAs as clinical isolates obtained from plastic surgery subjects of WonKwang University Hospital, were suspended in Muller-Hinton Broth. Thereafter, the bacterial solutions were adjusted to the turbidity of 0.5 Mcfarland standard. The bacteria were prepared at a concentration of about 1×10^8 CFU/ml, followed by performing anti-bacterial experiment using a liquid media dilution assay.
(§3) The extract from a bark of Alnus pendula was serially diluted from minimal concentration (0.97 μg/ml) to maximal concentration (2 mg/ml) using DMSO (Dimethylsulfoxide) as a solvent, and then were seeded into each well of 96-well plate with a volume of 10 μl/well, followed by adding 100 μl bacterial solution and 90 μl media. After culturing the mixture for 24 hrs at 37° C. in incubator, MIC was defined as minimal concentration in which the growth of bacteria is inhibited in a naked-eye observation.

The subject of test [3] is S. aureus ATCC 25923 (MSSA). The experiment in a line: MIC by liquid media dilution assay. The test is classed as cell-based. The following applies: Staphylococcus aureus, 24 hrs at 37° C., naked-eye observation, read-out: MIC (minimum inhibitory concentration). On the procedure: as §1, §2, §3
Test [4] deals with S. aureus ATCC 33591 (MRSA). Put plainly: MIC by liquid media dilution assay. The test is classed as cell-based. The settings on record: Staphylococcus aureus, 24 hrs at 37° C., naked-eye observation, read-out: MIC (minimum inhibitory concentration). On the procedure:
as §1, §2, §3

Test [5] has as its system DPS-1 (MRSA). Put plainly: MIC by liquid media dilution assay. The class given is cell-based. The following applies: Staphylococcus aureus; DPS-1 (MRSA) clinical isolate; 24 hrs at 37° C., naked-eye observation; read-out: MIC (minimum inhibitory concentration). On the procedure: as §1, §2, §3

By IC50 is commonly meant the point on the concentration scale where inhibition reaches its midpoint. High values mean weaker potency in that assay, low ones greater potency in that assay. Consider `O=C1O[C@H]([C@@H](O)CO)C(O)=C1O` [Vit. C, L-ascorbic acid], for which the half-inhibitory concentration (IC50) in test [1] turned out to be 16.4 ± 0.21 µM. Besides, in test [1] (extract and fractions), the “IC50 value DPPH radical scavenging activity” value came out at 5.29 ± 0.05 µg/mL (≈ 30 µM).
In the case of `O=C(/C=C/CCc1ccc(O)c(O)c1)CCc1ccc(O)c(O)c1` [compound 2, 1,7-bis-(3,4-dihydroxyphenyl)-4-heptene-3-one], the MIC in test [2] amounted to 62.5 µg/mL (≈ 190 µM); in test [3], 62.5 µg/mL (≈ 190 µM); in test [4] it was 62.5 µg/mL (≈ 190 µM); in test [5], 125 µg/mL (≈ 381 µM). Further, in test [1], the concentration for half-maximal inhibition (IC50) was found to be 22.5 ± 0.71 µM.
